Here are results for 1 compound from publication PMC6499206, “Quantification of Volatile Metabolites Derived From Garlic (Allium sativum) in Human Urine” (Frontiers in Nutrition, 2019).

This series can be described thus: Quantification of garlic-derived metabolites in human urine after ingestion of 3 g raw garlic (SIDA, SAFE, HRGC-MS / HRGC-GC-MS). It counts as in vivo. The settings on record: human urine; also refs 5, 16. The source says: Human urine samples were obtained from 18 volunteers (age 22–38 years, mean 27 years; 11 females, 7 males); thereby, one volunteer conducted the whole experimental series twice. At the time of examination, volunteers reported no known illness that might have potentially influenced the metabolism or the excretion of urine. The test persons were instructed to avoid foods that were rich in sulfur-containing substances at the testing day as well as 2 days preceding the testing day, namely garlic, onion, wild garlic, chives, cabbage, and leek, and were only allowed to consume the garlic sample provided in the course of the experiments. Additionally, subjects were asked to keep records of the food (including food supplements) and beverages they consumed during these 3 testing days. Generally, the overall panelists' requirements were in accordance with our previous studies ([5], [16]).
On the sampling day, the outer garlic cloves of a whole garlic bulb were peeled and cut into ~3 mm cubes by using a garlic cutter (Genius GmbH, Limburg/Lahn, Germany). Subsequently these cubes were thoroughly mixed and aliquoted into 3 g portions. Three to four test persons conducted the experiment at the same day. Each test person was asked to ingest a garlic portion of 3 g. In total, eight consecutive urine samples were provided by each test person, comprising one whole urine set. The samples were collected in sterile brown glass bottles, with sampling times as follows: one sample was provided directly prior to garlic consumption. The series of the second to eighth sample was then obtained at about 0.5, 1, 2, 4, 6, 8, and 24 h after garlic consumption, respectively. Between the first urine sample (prior to garlic consumption) and the seventh urine sample (8 h after garlic consumption) test persons only spent urine at the specific time points mentioned before. Another sample was provided at the next morning (24 h after garlic consumption). Between the samples provided 8 and 24 h after garlic consumption no urine was collected. All samples were immediately placed into a −80°C freezer and were kept frozen until further analysis.
The samples of each set were termed according to their sampling time. The following list provides the time intervals that are related to the respective sample name: • - pre: before garlic consumption • - 0.5 h post: 0.4–0.8 h after garlic consumption • - 1 h post: 0.9–1.3 h after garlic consumption • - 2 h post: 1.8 h−2.2 h after garlic consumption • - 4 h post: 3.8–4.4 h after garlic consumption • - 6 h post: 5.8–6.4 h after garlic consumption • - 8 h post: 7.8–8.4 h after garlic consumption • - 24 h post: 23.8–25.6 h after garlic consumption
A creatinine kit (Labor+Technik Eberhard Lehmann GmbH, Berlin, Germany) was used to determine the creatinine content in each urine sample. The determination principle of this kit is based on the reaction of creatinine with picric acid under basic conditions (Jaffé reaction). The formed complex was detected photometrically at a wavelength of 492 nm.
For quantification purposes, the deuterated standards ^2H3-AMS, ^2H3-AMSO, and ^2H3-AMSO2 were added to the sample and stirred for 10 min. Subsequently, DCM was added in a ratio of 1:2 (DCM/human urine; v/v) and this solution was stirred for further 30 min at room temperature. To isolate the volatile fraction from the urine samples we then applied SAFE-distillation ([17]), thereby distilling the respective samples at 50°C. After completion of the distillation process, 10 mL of DCM were applied in each case to rinse the SAFE apparatus and to ensure complete transition of the volatile compounds. This process was repeated with another 10 mL of DCM. After thawing, the obtained aqueous distillate phase was extracted three times with 25 mL DCM. The organic phases were combined, dried over anhydrous Na2SO4 and concentrated to a total volume of 100 μL by means of Vigreux distillation and subsequent micro-distillation at 50°C. […]

Each structure is given as a SMILES string.

Take `C=CCS(=O)(=O)CC=C` [diallyl sulfone]: the “presence as metabolite in human urine after garlic consumption” value was “exclude the presence”.
